Data as given in ChEMBL document CHEMBL1201862, “PubChem BioAssay data set” (2004).
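Method: 48-hour compound exposure of cells in 96-well plates, five concentrations, linear interpolation of endpoints. GI50: concentration for 50% inhibition of growth.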 Active and inactive are the calls of the source. Rule as the data show it: active = GI50 up to about 1.1 µM and inactive = higher.

Experiments:
Assay in all cases: inhibition of tumour cell growth, NCI panel, 48 h
MCF7 = test system: MCF7
M14 = test system: M14
PC-3 = test system: PC-3
SF-539 = test system: SF-539
K562 = test system: K562
HOP-62 = test system: HOP-62
A549 = test system: A549
MDA-N = test system: MDA-N
COLO 205 = test system: COLO 205
RPMI-8226 = test system: RPMI-8226
OVCAR-3 = test system: OVCAR-3
SK-OV-3 = test system: SK-OV-3
OVCAR-8 = test system: OVCAR-8
IGROV-1 = test system: IGROV-1
SNB-75 = test system: SNB-75
HCT-116 = test system: HCT-116
NCI-H23 = test system: NCI-H23
MDA-MB-231 = test system: MDA-MB-231
786-0 = test system: 786-0
SW-620 = test system: SW-620

SMILES	GI50 (MCF7)	GI50 (M14)	GI50 (PC-3)	GI50 (SF-539)	GI50 (K562)	GI50 (HOP-62)	GI50 (A549)	GI50 (MDA-N)	GI50 (COLO 205)	GI50 (RPMI-8226)	GI50 (OVCAR-3)	GI50 (SK-OV-3)	GI50 (OVCAR-8)	GI50 (IGROV-1)	GI50 (SNB-75)	GI50 (HCT-116)	GI50 (NCI-H23)	GI50 (MDA-MB-231)	GI50 (786-0)	GI50 (SW-620)
Brc1ccc(-c2cn3ccncc3n2)cc1	> 100 µM (inactive)	> 100 µM (inactive)	> 100 µM (inactive)	> 100 µM (inactive)	> 100 µM (inactive)	> 100 µM (inactive)	> 100 µM (inactive)	> 100 µM (inactive)	> 100 µM (inactive)	> 100 µM (inactive)	> 100 µM (inactive)	> 100 µM (inactive)	> 100 µM (inactive)	> 100 µM (inactive)	> 100 µM (inactive)	> 100 µM (inactive)	> 100 µM (inactive)	> 100 µM (inactive)	> 100 µM (inactive)	
c1cncc(C(Nc2cccc3cccnc23)Nc2cccc3cccnc23)c1	> 100 µM (inactive)	> 100 µM (inactive)	> 100 µM (inactive)	> 100 µM (inactive)	> 100 µM (inactive)	> 100 µM (inactive)	> 100 µM (inactive)	> 100 µM (inactive)	> 100 µM (inactive)	55.8 µM (inactive)	> 100 µM (inactive)	> 100 µM (inactive)	> 100 µM (inactive)	> 100 µM (inactive)	37.8 µM (inactive)	> 100 µM (inactive)	> 100 µM (inactive)	> 100 µM (inactive)	> 100 µM (inactive)	> 100 µM (inactive)
CCOC(CBr)OC1C(=O)OCC1(C)C (stereo unspecified)	> 100 µM (inactive)	> 100 µM (inactive)	> 100 µM (inactive)		> 100 µM (inactive)	> 100 µM (inactive)	> 100 µM (inactive)	> 100 µM (inactive)	> 100 µM (inactive)	> 100 µM (inactive)		> 100 µM (inactive)	> 100 µM (inactive)	> 100 µM (inactive)	> 100 µM (inactive)	> 100 µM (inactive)	> 100 µM (inactive)	> 100 µM (inactive)	> 100 µM (inactive)	> 100 µM (inactive)
O=C(C=P(c1ccccc1)(c1ccccc1)c1ccccc1)c1ccc(-c2cccc([N+](=O)[O-])c2)cc1	3.13 µM (inactive)	2.05 µM (inactive)	3.57 µM (inactive)	4.46 µM (inactive)	3.35 µM (inactive)	5.86 µM (inactive)	3.64 µM (inactive)	2.88 µM (inactive)	1.75 µM (inactive)	1.87 µM (inactive)	2.98 µM (inactive)	4.03 µM (inactive)			2.29 µM (inactive)	2.21 µM (inactive)	4.36 µM (inactive)	2.65 µM (inactive)	4.51 µM (inactive)	3.91 µM (inactive)
N#CCN(Cc1ccccc1)[C@@H]1CCC[C@]1(O)C#Cc1ccc2c(c1)OCO2	16.9 µM (inactive)	16.8 µM (inactive)	19.7 µM (inactive)	11.7 µM (inactive)	20.3 µM (inactive)	16.2 µM (inactive)	18.5 µM (inactive)	17.5 µM (inactive)	17.4 µM (inactive)	16 µM (inactive)	14.9 µM (inactive)	25.8 µM (inactive)	16.7 µM (inactive)	17.1 µM (inactive)	31 µM (inactive)		16.4 µM (inactive)	16.9 µM (inactive)	15.8 µM (inactive)	22.5 µM (inactive)
CN(C(=O)c1cc2c(s1)sc1c(=O)n(C)c3ccccc3c12)c1ccccc1	0.501 µM (active)	50.9 µM (inactive)	4.68 µM (inactive)	5.45 µM (inactive)	2.51 µM (inactive)		8.55 µM (inactive)	0.61 µM (active)	> 100 µM (inactive)		7.83 µM (inactive)	22.2 µM (inactive)	11.2 µM (inactive)	4.37 µM (inactive)	4.33 µM (inactive)	4.93 µM (inactive)	7.73 µM (inactive)	24.8 µM (inactive)	5.27 µM (inactive)	
CC1=C(C#N)S(=O)(=O)c2c(oc(C)c2C)N1	> 100 µM (inactive)	> 100 µM (inactive)	> 100 µM (inactive)	> 100 µM (inactive)	> 100 µM (inactive)	> 100 µM (inactive)	> 100 µM (inactive)	> 100 µM (inactive)		> 100 µM (inactive)	> 100 µM (inactive)	> 100 µM (inactive)	> 100 µM (inactive)		> 100 µM (inactive)	> 100 µM (inactive)	> 100 µM (inactive)	> 100 µM (inactive)	> 100 µM (inactive)	> 100 µM (inactive)
CCOC(=O)c1cc(=O)c2ccnc3c2n1CCS3	> 100 µM (inactive)	> 100 µM (inactive)	> 100 µM (inactive)	> 100 µM (inactive)		48.5 µM (inactive)	69.8 µM (inactive)	> 100 µM (inactive)	> 100 µM (inactive)		61.7 µM (inactive)	> 100 µM (inactive)	> 100 µM (inactive)	40.6 µM (inactive)	8.3 µM (inactive)	> 100 µM (inactive)	32.1 µM (inactive)	> 100 µM (inactive)	> 100 µM (inactive)	> 100 µM (inactive)
Oc1ccc[n+](Cc2ccccc2)c1	> 100 µM (inactive)	> 100 µM (inactive)	> 100 µM (inactive)	> 100 µM (inactive)	> 100 µM (inactive)	> 100 µM (inactive)	> 100 µM (inactive)	> 100 µM (inactive)	> 100 µM (inactive)	> 100 µM (inactive)	> 100 µM (inactive)	> 100 µM (inactive)	> 100 µM (inactive)		> 100 µM (inactive)	> 100 µM (inactive)	> 100 µM (inactive)	> 100 µM (inactive)	> 100 µM (inactive)	
CCN(CC)C(=O)COc1cc2c(O)c3c(O)c(C)c4c(c13)C(=O)C(C)(OC=CC(OC)C(C)C(OC(C)=O)C(C)C(O)C(C)C(O)C(C)C=CC=C(C)C(=O)N2)O4 (stereo unspecified)	> 100 µM (inactive)	> 100 µM (inactive)	> 100 µM (inactive)		> 100 µM (inactive)	> 100 µM (inactive)	> 100 µM (inactive)	> 100 µM (inactive)		37.4 µM (inactive)	> 100 µM (inactive)	> 100 µM (inactive)	> 100 µM (inactive)	> 100 µM (inactive)	> 100 µM (inactive)	> 100 µM (inactive)	> 100 µM (inactive)	> 100 µM (inactive)	> 100 µM (inactive)	> 100 µM (inactive)
C=C1CN(C2=NCCO2)C1	> 100 µM (inactive)	> 100 µM (inactive)	> 100 µM (inactive)	> 100 µM (inactive)	> 100 µM (inactive)	> 100 µM (inactive)	> 100 µM (inactive)	> 100 µM (inactive)	> 100 µM (inactive)	> 100 µM (inactive)	> 100 µM (inactive)		> 100 µM (inactive)	> 100 µM (inactive)	> 100 µM (inactive)	> 100 µM (inactive)	> 100 µM (inactive)	> 100 µM (inactive)	> 100 µM (inactive)	> 100 µM (inactive)
O=C(NCCC(F)(F)C(F)(F)C(F)(F)C(F)(F)F)NC1OC(CO)C(O)C(O)C1O (stereo unspecified)	> 100 µM (inactive)	> 100 µM (inactive)	> 100 µM (inactive)	> 100 µM (inactive)	> 100 µM (inactive)	> 100 µM (inactive)	> 100 µM (inactive)	> 100 µM (inactive)	> 100 µM (inactive)	> 100 µM (inactive)	> 100 µM (inactive)	> 100 µM (inactive)		> 100 µM (inactive)	> 100 µM (inactive)	> 100 µM (inactive)	> 100 µM (inactive)	> 100 µM (inactive)	> 100 µM (inactive)	> 100 µM (inactive)
O=c1[nH]c(=O)n(C2CC(O)C(CO)O2)cc1OCCCc1ccccc1 (stereo unspecified)	> 100 µM (inactive)	> 100 µM (inactive)	> 100 µM (inactive)		> 100 µM (inactive)	> 100 µM (inactive)	> 100 µM (inactive)	> 100 µM (inactive)	> 100 µM (inactive)	> 100 µM (inactive)	> 100 µM (inactive)	> 100 µM (inactive)	> 100 µM (inactive)	> 100 µM (inactive)	> 100 µM (inactive)	> 100 µM (inactive)	> 100 µM (inactive)	> 100 µM (inactive)	> 100 µM (inactive)	
Cn1c(N)nc2c(nc(OCc3ccccc3)n2C2OC(CO)C(O)C2O)c1=O (stereo unspecified)	> 100 µM (inactive)	> 100 µM (inactive)	> 100 µM (inactive)		> 100 µM (inactive)	> 100 µM (inactive)	> 100 µM (inactive)	> 100 µM (inactive)	> 100 µM (inactive)	> 100 µM (inactive)	> 100 µM (inactive)	> 100 µM (inactive)	> 100 µM (inactive)	> 100 µM (inactive)	> 100 µM (inactive)	> 100 µM (inactive)		> 100 µM (inactive)	> 100 µM (inactive)	> 100 µM (inactive)
O=C(CCc1ccc(O)c(O)c1)NCCc1cc(O)cc(OCc2ccccc2)c1	26.9 µM (inactive)	32.1 µM (inactive)	31.9 µM (inactive)	27.2 µM (inactive)	37 µM (inactive)	61.1 µM (inactive)	52.6 µM (inactive)	19.5 µM (inactive)	20.6 µM (inactive)	9.04 µM (inactive)	35.8 µM (inactive)	28.7 µM (inactive)		39.1 µM (inactive)	15.6 µM (inactive)	33.5 µM (inactive)	21.6 µM (inactive)	27.2 µM (inactive)	45.7 µM (inactive)	25.9 µM (inactive)
